From ChEMBL document CHEMBL1146267, “2,6-Disubstituted N-arylsulfonyl piperidines as gamma-secretase inhibitors” (Bioorg Med Chem Lett, 2007)

Target: Gamma-secretase
Test: Inhibition of gamma secretase-mediated amyloid-beta peptid […]
Assay type: protein-complex assay, Homo sapiens

IC50 [nM]	Compound
680	O=C(OCC1CCc2ccc(F)cc2N1S(=O)(=O)c1ccc(Cl)cc1)N1CCCC1 (configuration not stated)
71	CC1CN(C2CCCCC2)CCN1C(=O)OC[C@H]1CCC[C@@H](c2ccccc2)N1S(=O)(=O)c1ccc(Cl)cc1 (mixture of isomers)
37	CC1CN(CC2CC2)CCN1C(=O)OC[C@H]1CCC[C@@H](c2ccccc2)N1S(=O)(=O)c1ccc(Cl)cc1 (mixture of isomers)
26	CC1CN(CC2CC2)CCN1C(=O)OC[C@H]1CCC[C@@H](c2cccc(F)c2)N1S(=O)(=O)c1ccc(Cl)cc1 (mixture of isomers)
219	C[C@@H]1CCC[C@H](COC(=O)N2CCC(N(C)C3CCN(C)CC3)CC2)N1S(=O)(=O)c1ccc(Cl)cc1 (racemic)
76	C[C@@H]1CCC[C@H](COC(=O)N2CCC(N3CCCCC3)CC2)N1S(=O)(=O)c1ccc(Cl)cc1 (racemic)
17	O=C(OC[C@H]1CCC[C@@H](c2ccccc2F)N1S(=O)(=O)c1ccc(Cl)cc1)N1CCN(C2CCCCC2)CC1 (racemic)
38	O=C(OC[C@H]1CCC[C@@H](c2cccc(F)c2)N1S(=O)(=O)c1ccc(Cl)cc1)N1CCN(C2CCCCC2)CC1 (racemic)
11	O=C(OC[C@H]1CCC[C@@H](c2cccc(F)c2)N1S(=O)(=O)c1ccc(Cl)cc1)N1CCC(N2CCCCC2)CC1 (racemic)
12300	CN1CCC(N(C)C2CCN(C(=O)OC[C@H]3CCC[C@@H](Cc4ccccc4)N3S(=O)(=O)c3ccc(Cl)cc3)CC2)CC1 (racemic)
10	O=C(OC[C@H]1CCC[C@@H](c2cc(F)ccc2F)N1S(=O)(=O)c1ccc(Cl)cc1)N1CCC(N2CCCCC2)CC1 (racemic)
26	O=C(OC[C@H]1CCC[C@@H](c2ccc(F)c(F)c2)N1S(=O)(=O)c1ccc(Cl)cc1)N1CCN(C2CCCCC2)CC1 (racemic)
67	O=C(OC[C@H]1CCC[C@@H](c2ccccc2)N1S(=O)(=O)c1ccc(Cl)cc1)N1CCN(C2CCCCC2)CC1 (racemic)
570	C[C@@H]1CCC[C@H](COC(=O)NCCCn2ccnc2)N1S(=O)(=O)c1ccc(Cl)cc1 (relative stereo)
10600	C[C@@H]1CCC[C@@H](COC(=O)N2CCCC2)N1S(=O)(=O)c1ccc(Cl)cc1 (relative stereo)

Second part, the molecule before the results:

Compound	IC50 [nM]
O=C(NCCCn1ccnc1)OCC1CCc2ccc(F)cc2N1S(=O)(=O)c1ccc(Cl)cc1 (configuration not stated)	270
CC1CCC2CCCCC2N1S(=O)(=O)c1ccc(Cl)cc1 (configuration not stated)	2500
O=C(NCCCn1ccnc1)OCC1CCCCN1S(=O)(=O)c1ccc(Cl)cc1 (configuration not stated)	15400
O=C(OC[C@H]1CCC[C@@H](c2cccc(F)c2)N1S(=O)(=O)c1ccc(Cl)cc1)N1CCC(N2CCCCC2)CC1 [listing 1 of 2 here]	3
O=C(OC[C@H]1CCC[C@@H](c2cccc(F)c2)N1S(=O)(=O)c1ccc(Cl)cc1)N1CCC(N2CCCCC2)CC1 [listing 2 of 2 here]	83
CC1CC(N2CCCCC2)CCN1C(=O)OC[C@H]1CCC[C@@H](c2cccc(F)c2)N1S(=O)(=O)c1ccc(Cl)cc1 (mixture of isomers)	13
CC1CC(N2CCCCC2)CCN1C(=O)OC[C@H]1CCC[C@@H](c2cc(F)cc(F)c2)N1S(=O)(=O)c1ccc(Cl)cc1 (mixture of isomers)	7
CC[C@@H]1CCC[C@H](COC(=O)N2CCC(N(C)C3CCN(C)CC3)CC2)N1S(=O)(=O)c1ccc(Cl)cc1 (racemic)	159
O=C(OC[C@H]1CCC[C@@H](Cc2ccccc2)N1S(=O)(=O)c1ccc(Cl)cc1)N1CCC(N2CCCCC2)CC1 (racemic)	4770
O=C(OC[C@H]1CCC[C@@H](c2cc(F)ccc2F)N1S(=O)(=O)c1ccc(Cl)cc1)N1CCN(C2CCCCC2)CC1 (racemic)	28
O=C(OC[C@H]1CCC[C@@H](c2cc(F)cc(F)c2)N1S(=O)(=O)c1ccc(Cl)cc1)N1CCN(C2CCCCC2)CC1 (racemic)	36
O=C(OC[C@H]1CCC[C@@H](c2cc(F)cc(F)c2)N1S(=O)(=O)c1ccc(Cl)cc1)N1CCC(N2CCCCC2)CC1 (racemic)	4
O=C(OC[C@H]1CCC[C@@H](c2ccc(F)c(F)c2)N1S(=O)(=O)c1ccc(Cl)cc1)N1CCC(N2CCCCC2)CC1 (racemic)	8
O=C(OC[C@H]1CCC[C@@H](c2ccccc2F)N1S(=O)(=O)c1ccc(Cl)cc1)N1CCC(N2CCCCC2)CC1 (racemic)	8
O=C(OC[C@H]1CCC[C@@H](c2ccccc2)N1S(=O)(=O)c1ccc(Cl)cc1)N1CCC(N2CCCCC2)CC1 (racemic)	16
C[C@@H]1CCC[C@@H](COC(=O)NCCCn2ccnc2)N1S(=O)(=O)c1ccc(Cl)cc1 (relative stereo)	6420
C[C@@H]1CCC[C@H](COC(=O)N2CCCC2)N1S(=O)(=O)c1ccc(Cl)cc1 (relative stereo)	1970
